Reference: US10201559B2, “Compositions of selenoorganic compounds and methods of use thereof” (Alltech, Inc., priority 2014, dated 2019)
Entries after “also recorded” stand apart in the source; their conditions may differ.

Columns and labels:
pElf2be = assay: Western blot, pElf2be S539 in AML-12 cells; type: cell-based, mouse; settings: for increased phosphorylation of Elf2be: individual compounds, 6 or 24 hr
Description: (§1) IMR-32 and AML12 cells were seeded on 6-well plates, and then treated with vehicle and various compounds for 6 and 24 hr, as described above. After treatments, cells were rinsed with ice-cold PBS, and lysed in the ice-cold RIPA buffer containing complete proteinase and phosphotase inhibitors (Themo-Fisher Scientific, Waltham, Mass.) on ice for 30 min. Cell lysates were collected using a cell scraper and transfer pipette, and then centrifuged at 12000 g for 30 min at 4° C. to remove the DNA pellet and obtain the protein extract. Protein levels in the supernatant of these cell lysates were determined using the Pierce Micro-BCA protein assay kit (Themo Scientific-Piece Biotechnology, Rockford, Ill.) according to the manufacturer's protocol.
(§2) For Western blot analysis, five micrograms of total proteins from vehicle- and compound(s)-treated cells were subjected to SDS-PAGE gel separation, and then transferred to PVDF membranes, as described previously (Reddy, Liu et al. 2008 Science). Membranes were blocked in a phosphate-buffered saline (PBS) containing 5% (w/v) of bovine serum albumin (Sigma, St. Louis, Mo.), and incubated with specific primary antibodies followed by the incubation with HRP-conjugated anti-mouse or anti-rabbit secondary antibodies (1:5000 dilution, Cell Signaling Inc.). All primary antibodies except G6PC (Santa Cruz), Actb (Li-COR, Lincoln, Nebr.), Elf2bε and pElf2bε (Abcam, Cambridge, Mass.) were purchased from Cell Signaling Inc. Positive signals on the membrane blots were detected using the Amersham's enhanced chemiluminescence Western Blotting Prime Detection reagents (GE healthcare Lifescience, Pittsburgh, Pa.). Images of these luminescence signals on the membrane blots were captured using the LI-COR Odyssey Fc Image system (Lincoln, Nebr.). The same membrane blot was striped and re-blotted with another antibody as described in the GE WB ECL-prime-detection protocol (GE healthcare Lifescience, Pittsburgh, Pa.). Protein band densities in the Western blots were determined using the Li-COR Image studio software or NIH ImageJ software, and then normalized by Actb level in each sample. Data are presented as mean±sem of three samples per each group.

C2C12 cells [1] = assay: Quantitative analysis of mitochondrial potential in C2C12 cells; type: cell-based, mouse; settings: for MT potential: 24 hr, compared to control
Description: For C2C12 cells, equal number of cells (1×10^4) were seeded on Corning 96-well clear-bottom and dark-wall cell culture plates (VWR), cultured in 10% FBS DMEM media for 24 hr., and then treated with vehicle (sterilized water), compound C and D and their sulfur analogs for 24 and 48 hrs. These vehicle- or compound-treated cells were rinsed twice with PBS, incubated with Mitotracker Orange fluorescence dye at 37° C. for 30 min, and then replaced with PBS. Mitotracker Orange fluorescence intensities (mitochondrial potential) in these living cells were determined by a Bio-TeK Synergy HT Multi-Mode Fluorescence Microplate Reader (Winooski, Vt.). Eight samples per each treatment were examined for the above analysis, and data are presented as mean±sem of eight samples.

IMR-32 cells [2] = assay: Quantitative analysis of mitochondrial potential in IMR-32 cells; type: cell-based, human; settings: for enhanced MT potential compared with sulfur analogs: 24 hr
Description: Similar to the above studies on AML-12 cells, the mitochondrial potential per cell in living IMR-32 cells was determined using the Bio-TeK Synergy HT Multi-Mode fluorescence microplate reader with the following modifications. To improve the attachment of IMR-32 cells to culture dishes, cell culture plates were precoated with 0.1% gelatin (Sigma, St. Louis, Mo.). 2×10^4 cells per a 96-well were seeded on gelatinized 96-well plates for the above studies. To reduce the cell dislodgment, Mitotracker orange and Hoechst 33342 fluorescent dyes (diluted in culture media) were directly added to each well after vehicle- or compound-treatments. After dye incubation, cell culture media were carefully replaced with 1× PBS for the quantitation analysis of fluorescence on the microplate reader. Eight samples per each treatment were examined for the above analysis, and the experiments were repeated at least five times. Data are presented as mean±sem of eight samples.

IMR-32 cells [3] = assay: Cell viability assay, IMR-32; type: cell-based, human; settings: 24, 48 and 72 hr
Description: (§3) Cell viability in cultured cells was determined using Promega's CellTiter96® AQueous One Solution Cell Proliferation Assay kits, according to the Manufacturer's protocol. In brief, equal number of C2C12 (1×10^4 cells/well), AML-12 (1×10^4 cells/well) and IMR-32 (2×10^4 cells/well) were seeded on 96-well clear plates (VWR) and treated with vehicle or compounds for 24, […] and/or 72 hr. Then, cultured cells were incubated with AQueous One solution (100 ul/per well) at 37° C. for 1 hr, and the absorbance of OD490 nm in each sample was determined by the Bio-Tek microplate reader. Cell viability in culture cells were determined by the subtraction of OD490 nm in cultured cells with the OD490 nm in plain culture media (without seeding of cells). Eight samples per each treatment were examined for the above analysis. Data are presented as Mean±sem of eight samples.

C2C12 cells [4] = assay: Cell viability assay, C2C12; type: cell-based, mouse; settings: 24 hr and 48 hr, same doses
Description: as §3

pElf2beS539 = assay: Western blot, pElf2beS539 in IMR-32 cells; type: cell-based, human; settings: 150 ppb
Description: as §1
as §2, with “The same membrane blot was striped and re-blotted with another antibody as described in the GE WB ECL-prime-detection protocol (GE healthcare Lifescience, Pittsburgh, Pa.).” left out, “Data are presented as mean±sem of three samples per each group.” left out

pFOXOs = assay: Western blot, FOXO phosphorylation (pFOXOs) in AML-12 cells treated with individual compounds; type: cell-based, mouse; settings: 150 ppb, 6 or 24 hr
Description: as §1
as §2, with “The same membrane blot was striped and re-blotted with another antibody as described in the GE WB ECL-prime-detection protocol (GE healthcare Lifescience, Pittsburgh, Pa.).” left out, “Data are presented as mean±sem of three samples per each group.” left out

pAKT = assay: Western blot, pAKT in AML-12 cells; type: cell-based, mouse; settings: for increased phosphorylation of AKT: individual compounds, 6 or 24 hr
Description: as §1, §2

HEK293T cells = assay: Fluorescence analysis of mitochondrial potential in HEK293T cells; type: cell-based, human; settings: for MT potential (Mitotracker Orange fluorescence): 4.5 hr; for MT potential / mitochondrial activity in kidney cells: dose not stated
Description: HEK293T cells were cultured in 8-chamber glass slides (1×10^4 cells/chamber) for 24 hours, and then treated with various concentrations of compounds or its respective sulfur analogs (dissolved in sterilized water) for 4.5 hr. These compound-treated cells were rinsed twice with PBS, and incubated with Mitotracker Orange Fluorescence Dye (Invitrogen) at 37° C. for 30 min, and then replaced with fresh PBS according to the Manufacturer's protocol. Then fluorescent signals (mitochondrial potential) in these living cells were recorded using a Zeiss Axio Vert.A1 fluorescence microscope (Thornwood, N.Y.). At least three samples in each treatment group were analyzed under the fluorescent microscope.

Tau = assay: Western blot, ratio of phosphorylated Tau to total Tau in IMR-32 cells; type: cell-based, human; settings: 150 ppb, 24 hr
Description: as §1
(§4) For Western blot analysis, five micrograms of total proteins from vehicle- and compound(s)-treated cells were subjected to SDS-PAGE gel separation, and then transferred to PVDF membranes, as described previously (Reddy, Liu et al. 2008 Science). […] All primary antibodies except G6PC (Santa Cruz), Actb (Li-COR, Lincoln, Nebr.), Elf2bε and pElf2bε (Abcam, Cambridge, Mass.) were purchased from Cell Signaling Inc. Positive signals on the membrane blots were detected using the Amersham's enhanced chemiluminescence Western Blotting Prime Detection reagents (GE healthcare Lifescience, Pittsburgh, Pa.). […]

pTau S396 = assay: Western blot, pTau S396 in IMR-32 cells; type: cell-based, human; settings: 150 ppb, 24 hr
Description: as §1, §4

[5] = continuous 48 hr single treatment

Row | Compound | increased phosphorylation of Elf2be (pElf2be) | MT potential (C2C12 cells [1]) | MT potential (IMR-32 cells [2]; 6 hr, compared to control) | enhanced MT potential compared with sulfur analogs (IMR-32 cells [2]) | MT potential (IMR-32 cells [2]; [5]) | cell viability (OD490 nm) (IMR-32 cells [3]) | cell viability (C2C12 cells [4]) | pElf2beS539 protein level (pElf2beS539) | FOXO phosphorylation (increased pFOXOs) (pFOXOs) | increased phosphorylation of AKT (pAKT) | MT potential / mitochondrial activity in kidney cells (HEK293T cells) | ratio of total pTauS396 and pTauS400/T403/S404 to total Tau proteins (Tau) | enhanced MT potential compared with respective sulfur analog(s) (IMR-32 cells [2]; 6 hr) | phosphorylation of Tau at S396 (pTau S396) | further results
1 | C[Se]C[C@H]1O[C@@H](n2cnc3c(N)ncnc32)C(O)C1O (stereo in doubt) [compound C, 5′-Methylselenoadenosine] | did not observed the increased phosphorylation | significantly enhanced MT potential | a trend towards elevated MT potential | more pronounced | did not affect MT potential | lack of toxic effects; also recorded: Improved neuronal cell survival | did not affect cell viability | not affected | did not increase FOXO phosphorylation | did not observed the increased phosphorylation | enhanced MT potential | significantly attenuated total phosphorylation of Tau protein | – | – | MT potential (Mitotracker Orange fluorescence) (HEK293T cells; 37.5 ppb): enhanced MT potential; MT potential (Mitotracker Orange fluorescence) (HEK293T cells; 75 ppb): less effects on MT potential
2 | Nc1ncnc2c1ncn2[C@@H]1O[C@H](C[Se]CC[C@@H](N)C(=O)O)C(O)C1O (stereo partly drawn) [compound D, 5′-Selenoadenosyl homocysteine] | did not observed the increased phosphorylation | significantly enhanced MT potential | significantly enhanced MT potential | more pronounced | did not affect MT potential | lack of toxic effects | did not affect cell viability | not affected | did not increase FOXO phosphorylation | did not observed the increased phosphorylation | ineffective | – | more pronounced | had no effect on Tau phosphorylation at all tested serine/threonine residues | potency on MT potential relative to compound C (C2C12 cells [1]; lower doses (37.5 and 75 ppb)): more potent than compound C; stimulation of mitochondrial activity over control levels (C2C12 cells [1]; most effective dose): two-fold over control levels; also recorded: two-fold stimulation of mitochondrial activity; MT potential (IMR-32 cells [2]; repeated treatments (24 hr + 24 hr), 15 and 150 ppb): significantly enhanced MT potential; MT potential (Mitotracker Orange fluorescence) (HEK293T cells; all tested doses (37.5 and 75 ppb)): did not affect MT potential
3 | C[Se]CC(NC(=O)CCC(N)C(=O)O)C(=O)O (stereo not drawn) [compound E, gamma-glutamyl-methylseleno-cysteine] | did not observed the increased phosphorylation | – | significantly enhanced MT potential | more pronounced | did not affect MT potential | lack of toxic effects | – | not affected | did not increase FOXO phosphorylation | did not observed the increased phosphorylation | – | trend of reduced Tau phosphorylation | more pronounced | significantly down-regulated | levels of pElf2bε S539 (pElf2be; individual compound, 6 hr): slightly reduce; MT potential (IMR-32 cells [2]; repeated treatments (24 hr + 24 hr), 150 ppb): significantly enhanced MT potential; levels of pAKT (pAKT; individual compound, 6 hr): slightly reduce
